Laboratory results from patent US9717719B2, “Treatment, prevention, and reversal of alcohol-induced liver disease” (Rhode Island Hospital, priority 2006, dated 2017).
Entries after “also recorded” stand apart in the source; their conditions may differ.

How the values were obtained:
Type in all cases: in vivo, rat
Long Evans rats = assay: Liver histology in the chronic ethanol exposure model; details: for extents of micro- and macrosteatosis / liver histology (hepatic architecture): ethanol-fed rats; for liver histology (hepatic architecture): relative to vehicle
Text: Chow fed control rats were also studied. Rats were monitored daily to ensure equivalent food consumption and maintenance of body weight. […] At the conclusion of the experiment, rats were anesthetized with vaporized isofluorane (SurgiVet, Inc. Waukesha, Wis.), and liver and blood were harvested for analysis. Liver tissue samples were immersion fixed in Histochoice (Amresco Corp., Solon, Ohio) and embedded in paraffin. Adjacent histological sections were stained with Hematoxylin and Eosin or Gomori's Trichrome and examined under code. In addition, liver tissue samples were snap-frozen in a dry ice methanol bath and then stored at −80° C. for later mRNA and protein studies. Throughout the experiment, rats were housed under humane conditions and kept on a 12-hour light/dark cycle with free access to food. All experiments were performed in accordance with protocols that conform to guidelines established by the National Institutes of Health and were approved by Institutional Animal Care and Use Committee at the Lifespan-Rhode Island Hospital.

IGF-II receptor = assay: Saturation binding assay in liver of treated rats, IGF-II receptor binding; details: pooled liver of 8 rats
Text: Adult male (˜200-250 g) Long Evans rats (Harlan Sprague Dawley, Inc., Indianapolis, Ind.) were pair-fed with isocaloric liquid diets (BioServ, Frenchtown, N.J.) containing 0% (control) or 37% ethanol by caloric content (9.2% v/v) for 8 weeks. During the week prior to initiating the experiment, rats were adapted to the ethanol-containing diets by sequentially feeding them for two days each with diets containing 8%, 17%, 24%, and then 37% ethanol. Chow fed control rats were also studied. Rats were monitored daily to ensure equivalent food consumption and maintenance of body weight. During the last 3 weeks of the experiment while being maintained on either the 0% or 37% ethanol-containing liquid diets, rats in both groups were administered twice weekly (Mondays and Thursdays) intra-peritoneal (i.p.) injections of vehicle (saline), a PPAR-α (GW7647; 25 μg/kg), PPAR δ (L-165,041; 2 μg/kg), or PPAR-γ (F-L-Leu; 20 μg/kg) agonist (CalBiochem, Carlsbad, Calif.). At the conclusion of the experiment, rats were anesthetized with vaporized isofluorane (SurgiVet, Inc. Waukesha, Wis.), and liver and blood were harvested for analysis. Liver tissue samples were immersion fixed in Histochoice (Amresco Corp., Solon, Ohio) and embedded in paraffin. Adjacent histological sections were stained with Hematoxylin and Eosin or Gomori's Trichrome and examined under code. In addition, liver tissue samples were snap-frozen in a dry ice methanol bath and then stored at −80° C. for later mRNA and protein studies. Throughout the experiment, rats were housed under humane conditions and kept on a 12-hour light/dark cycle with free access to food. All experiments were performed in accordance with protocols that conform to guidelines established by the National Institutes of Health and were approved by Institutional Animal Care and Use Committee at the Lifespan-Rhode Island Hospital.
Saturation binding studies were used to determine if the PPAR agonist treatments improved ethanol-impaired insulin and IGF receptor binding in liver. Fresh frozen liver tissue was homogenized in 5 volumes of lysis buffer containing 50 mM Tris-HCl, pH 7.5, 1% NP-40, 150 mM NaCl, 1 mM EDTA, 2 mM EGTA, plus protease (1 mM PMSF, 0.1 mM TPCK, 1 μg/ml aprotinin, 1 μg/ml pepstatin A, 0.5 μg/ml leupeptin, 1 mM NaF, 1 mM Na4P2O7) and phosphatase (2 mM Na3VO4) inhibitors. Protein concentration was determined using the bicinchoninic acid (BCA) assay (Pierce, Rockford, Ill.). Exploratory studies determined the optimum amounts of protein and concentrations of radiolabeled ligand required to achieve 20% specific binding. Insulin receptor binding was measured using 100 μg protein per assay tube. IGF-I binding assays required 25 μg protein per sample, and IGF-II receptor binding assays required 10 μg protein per reaction.
To generate the binding curse, samples from 8 rats per group were pooled in equivalent ratios and protein concentrations were adjusted to be identical for each group. For total binding, duplicate samples were incubated in 100 μl reactions containing binding buffer (100 mM HEPES, pH 8.0, 118 mM NaCl, 1.2 mM MgSO4, 8.8 mM dextrose, 5 mM KCl, 1% bovine serum albumin) and 0.0031 to 1 μCi/ml of [^125I] (2000 Ci/mmol) insulin, IGF-I, or IGF-II. For non-specific binding, duplicate samples were identically prepared but with the addition of 0.1 μM unlabeled (cold) ligand. Incubations were carried out for 16 hours at 4° C. in non-binding 96 well plates (Corning Incorporated Life Science, Lowell, Mass.). Reactions were vacuum harvested (Corning, Lowell, Mass.) onto 96-well GF/C filter plates that had been presoaked for 30 minutes in 0.33% polyethyleneimine (PEI) solution. The filters were washed 5 times with buffer containing 50 mM buffer [4-2-hydroxyethyl)-1-piperazine-ethanesulfonic acid (HEPES), pH 7.4, 500 mM NaCl, and 0.1% BSA. […]

[1] = tested on: Long-Evans male rats fed a 37% ethanol liquid diet; assay: DNA damage in liver by 8-OHdG immunostaining; details: chronic ethanol fed rats
Experimental: (§1) An isocaloric (sucrose substituted for ethanol) diet was administered to pair fed control animals. After three weeks, both groups of rats were injected with either PPAR-α, γ, or δ agonists or saline as a control. […] The […] were given IP injections twice a week. At 6 weeks, the animals underwent 2/3 partial hepatectomy. The removed liver was used for histology, measurement of lipid peroxidation, DNA damage and insulin/IGF signaling as described below. Following ⅔ hepatectomy, the liver remnants were harvested 18, 24, 30 and 48 hours later to assess the regenerative response. To do this, animals were injected IP with BrdU 2 hours before harvest to measure its incorporation into hepatic nuclei as an index of DNA synthesis.
(§2) Paraffin sections (8 μm thick) were immunostained with monoclonal antibodies to 8-hydroxy-deoxyguanosine (8-OHdG) (Oxis Research) or 4-hydroxynonenol (HNE) (Chemicon International, Temecula, Calif.), to detect DNA damage and lipid peroxidation, respectively. Prior to immunostaining, the deparaffinized, re-hydrated sections were treated with 0.1 mg/ml saponin in phosphate buffered saline (10 mM sodium phosphate, 0.9% NaCl, pH 7.4; PBS) for 20 minutes at room temperature, followed by 3% hydrogen peroxide in methanol for 10 minutes to quench endogenous peroxidase activity, and then a 30-minute incubation in SuperBlock-TBS (Pierce Chemical Co., Rockford, Ill.) to block non-specific binding sites. The tissue sections were then incubated overnight at 4° C. with 0.5-1 μg/ml of primary antibody. […] The tissue sections were counterstained with hematoxylin, preserved under coverglass, and examined by light microscopy.

[2] = tested on: Long-Evans male rats fed a 37% ethanol liquid diet; assay: Lipid peroxidation in liver by HNE immunostaining; details: chronic ethanol fed rats
Experimental: as §1, §2

[3] = tested on: Long-Evans male rats fed a 37% ethanol liquid diet; assay: Liver regeneration by BrdU incorporation after 2/3 partial hepatectomy in chronic ethanol fed rats; details: for increase in BrdU labeling: 24 hours after 2/3 hepatectomy, compared to ethanol fed animals; for liver regeneration (BrdU incorporation): after 2/3 hepatectomy
Experimental: as §1

Row | SMILES | liver histology (Long Evans rats; control rats, relative to vehicle-treated controls) | extents of micro- and macrosteatosis (Long Evans rats) | liver histology (hepatic architecture) (Long Evans rats) | BMAX ± S.E.M. (IGF-II receptor; Control + agonist) | BMAX ± S.E.M. (IGF-II receptor; Ethanol + agonist) | DNA damage (8-OHdG immunoreactivity) [1] | hepatic lipid peroxidation (HNE immunostaining) [2] | increase in BrdU labeling [3] | liver regeneration (BrdU incorporation) [3]
1 | CC(C)(Sc1ccc(CCN(CCCCC2CCCCC2)C(=O)NC2CCCCC2)cc1)C(=O)O [PPAR-α, GW7647] | no detectable histological changes in liver; also recorded: no detectable effects on liver histology | overtly reduced | reduced the disordered architecture; also recorded: strikingly reduced the ethanol-associated architectural disarray and steatosis | 40.27 ± 3.28 | 28.88 ± 6.20 | protective effect | substantially improved | approximately 20% | more modest beneficial effects
2 | CCCc1c(OCCCOc2ccc(OCC(=O)O)cc2)ccc(C(C)=O)c1O [PPAR-δ, L-165,041] |  | overtly reduced | reduced the disordered architecture; also recorded: most striking improvements in liver histology; also recorded: strikingly reduced the ethanol-associated architectural disarray and steatosis; also recorded: more effective than the PPAR-α agonist in restoring hepatic architecture | 29.01 ± 1.99 | 51.50 ± 13.53 | most prominent protective effect; also recorded: superior to the α and γ agents in preventing hepatocyte damage | substantially improved |  | essentially restored liver regeneration to levels seen in normal control animals; also recorded: returns the liver regenerative response to normal levels; also recorded: more modest beneficial effects
3 | CC(C)C[C@H](NC(=O)OCC1c2ccccc2-c2ccccc21)C(=O)O [PPAR-γ, F-L-Leu] |  | overtly reduced | reduced the disordered architecture; also recorded: most striking improvements in liver histology; also recorded: strikingly reduced the ethanol-associated architectural disarray and steatosis; also recorded: more effective than the PPAR-α agonist in restoring hepatic architecture | 25.20 ± 2.04 | 22.56 ± 4.43 | protective effect | substantially improved | approximately 20% | 
